Earlier results in patent publication US20100069389A1, “NOVEL FORMS OF REBOXETINE” (Bionevia Pharmaceuticals, Inc., priority 2008, published 2010).

Conditions: humans; Denolle et al., Clin Pharmacol Ther. 1999

CCOc1ccccc1OC(c1ccccc1)C1CNCCO1 (racemic) [Racemic reboxetine, (2RS)-2-[(RS)-(2-ethoxyphenoxy)-phenylmethyl]morpholine]
Blood pressure and heart rate increases compared with (R,R)-reboxetine: greater blood pressure increases and heart rate increases in humans than does administration of (R,R)-reboxetine
